Data set [1] in a line: Visual observation of suspension quality / co-suspension in glass vials, incl. centrifugation. The data set is classed as physicochemical. The conditions noted are these: glass vials heated to 30° C.-35° C. An excerpt: Exemplary methods for assessing whether a co-suspension is present can include the following: If one particle type has a pycnometric density greater than the propellant and another particle type has a pycnometric density lower than the propellant, a visual observation of the creaming or sedimentation behavior can be employed to determine the presence of a co-suspension. The term “pycnometric density” refers to the density of a material that makes up a particle, excluding voids within the particle. In one embodiment, the materials can be formulated or transferred into a transparent vial, typically a glass vial, for visual observation. After initial agitation the vial is left undisturbed for a sufficient time for formation of a sediment or cream layer, typically 24 hours. If the sediment or cream layer is observed to be completely or mostly a uniform single layer, a co-suspension is present.
Metered dose inhalers were prepared by weighing the target masses of micronized GP particles and suspending particles into fluorinated ethylene polymer (FEP) coated aluminum canisters (Presspart, Blackburn, UK) with 19 mL volume. […]

Data set [2] in a line: Aerosol performance by Next Generation Impactor, USP <601> (fine particle fraction, MMAD). The data set is classed as physicochemical.
Method: A Next Generation Impactor (NGI) operated at a flow rate of 30 L/min was used for determination of particle size distribution. Sample canisters were seated into an actuator with two waste actuations and two additional waste priming actuations. Five actuations were collected in the NGI with a USP throat attached. The valve, actuator, throat, NGI cups, stages, and filter were rinsed with volumetrically dispensed solvent. The sample solutions were assayed using a drug specific chromatographic method. The fine particle fraction was defined using the sum of stages 3 through filter. […] Inhalers were seated and primed as described before. Two actuations were collected and assayed at beginning, middle and end of use.
A Next Generation Impactor (NGI) operated at a flow rate of 30 L/min was used for determination of particle size distribution. Sample canisters were seated into an actuator with two waste actuations and two additional waste priming actuations. Five actuations were collected in the NGI with a USP throat attached. The valve, actuator, throat, NGI cups, stages, and filter were rinsed with volumetrically dispensed solvent. The sample solutions were assayed using a drug specific chromatographic method. The fine particle fraction was defined using the sum of stages 3 through filter. […] Two actuations were collected and assayed at beginning, middle and end of use.
A Next Generation Impactor (NGI) operated at a flow rate of 30 L/min was used for determination of particle size distribution. Sample canisters were seated into an actuator with two waste actuations and two additional waste priming actuations. Five actuations were collected in the NGI with a USP throat attached. The valve, actuator, throat, NGI cups, stages, and filter were rinsed with volumetrically dispensed solvent. The sample solutions were assayed using a drug specific chromatographic method. The fine particle fraction was defined using the sum of stages 3 through filter.
Data set [3] has as its system patients with mild to moderate COPD. Nature of the data set: Multi-center crossover clinical trial, single administration: FEV1 spirometry. It counts as in vivo, human. The note with it: all doses of Glycopyrrolate MDI; tiotropium 18 μg.
Setting [4] is: co-suspension MDI: 2 mg SX, 60 mg suspending particles, 10 mL HFA 134a.

For `OCc1cc(C(O)CNCCCCCCOCCCCc2ccccc2)ccc1O` (stereo not drawn) [SX, 4-hydroxy-α1-[[[6-(4-phenylbutoxy)hexyl]amino]methyl]-1,3-benzenedimethanol, 1-hydroxy-2-naphthalenecarboxylate], in data set [1], the “Visual observation of active agent particles formulated alone” value was “sedimented rapidly” and the “Visual observation of co-suspension vial” value is listed as “no SX crystals were visible at the bottom”. In data set [2] (setting [4]), this molecule registered a Fine particle fraction of 48% and an MMAD of 3.7 μm.
In turn, `C[N+]1(C)CCC(OC(=O)C(O)(c2ccccc2)C2CCCC2)C1.[Br-]` (stereo not drawn) [glycopyrrolate, Pyrrolidinium, 3-((cyclopentylhydroxyphenylacetyl)oxy)-1,1-dimethyl-, bromide] gave a Fine particle fraction in data set [2] (24 μg per actuation co-suspension MDI, initially) of 59.3%.
Take `C[N+]1(C)[C@@H]2C[C@@H](OC(=O)C(O)(c3cccs3)c3cccs3)C[C@H]1[C@@H]1O[C@@H]12` [tiotropium]: the “Mean time to ≥10% improvement in FEV1” value in data set [3] is given as “approximately 3 hour”.

The values are drawn from US10716753B2, “Compositions for pulmonary delivery of long-acting muscarinic antagonists or long-acting B2 adrenergic receptor agonists and associated methods and systems” (priority 2009, dated 2020).
